Results reported in patent US20020168389A1, “Stable skin conditioning compositions containing retinoid boosters” (priority 2000, published 2002).

Assays:
[1] = system: Retinal Reductase; assay: Assay for Retinal Reductase Activity, rat liver microsomes (to identify B3); assay type: biochemical; conditions: test compound final 100 μM
Method: The resulting homogenate was successively centrifuged for 30 min. at 10,000 g, 30 min. at 20,000 g, and 15 min. at 30,000 g, and the resulting supernatant was ultracentrifuged for 80 min. at 105,000 g. […] Protein concentrations were determined as described above. […] All stock solution were prepared as above with the following substitutions: 10 mM all trans Retinaldehyde (Sigma R2500) in DMSO—instead of retinol. 200 mM, Nicotinamide adenine dinucleotide phosphate, reduced form, tetrasodium salt (NADPH) (Sigma N7505) in sterile water—instead of NADP. In a two-dram glass vial with screw cap, add the following in order: […] 25 μl diluted Microsomes (final=100 μg)—use boiled Microsomes for controls and regular Microsomes for test samples. […] 3 μl of 10 mM retinaldehyde (final=75 μM) Follow the same incubation and extraction procedure as detailed above. […] Aliquots of 60 μL were injected immediately and analyzed for retinoid content. The chromatography instrumentation consisted of a Waters 600 gradient controller/pump, a Waters 996 Photodiode Array detector and a Waters 474 Scanning Fluorescence detector. Two HPLC protocols were used for retinoid analysis. […] The eluate was monitored for absorbance at 325 nm and fluorescence at 325 ex/480 em. […] B. Barua, “Analysis of Water-Soluble Compounds: Glucuronides”, Methods Enzymol. 189, 136-145 (1990). […] These protocols were selected based on their ability to clearly resolve pertinent retinoid acids, alcohols, aldehydes, and/or esters for each assay and relative quickness of separation. Identification of individual retinoids by HPLC was based on an exact match of the retention time of unknown peaks with that of available authentic retinoid standards and UV spectra analysis (300-400 nm) of unknown peaks against available authentic retinoids.

[2] = system: Retinol Dehydrogenase; assay: Assay for Retinol Dehydrogenase Activity, rat liver microsomes (to identify B2); assay type: biochemical; conditions: ranking among B2 compounds
Method: The resulting homogenate was successively centrifuged for 30 min. at 10,000 g, 30 min. at 20,000 g, and 15 min. at 30,000 g, and the resulting supernatant was ultracentrifuged for 80 min. at 105,000 g. […] Protein concentrations were determined as described above.
2.4 Assay for Retinol Dehydrogenase Activity (To identify B2)
The following stock solutions were prepared:
50 mM KH2PO4, pH 7.4 buffer, sterile filtered.
10 mM all trans Retinol (Sigma R7632) in DMSO.
200 mM Nicotinamide adenine dinucleotide phosphate, sodium salt (NADP) (Sigma N0505) in sterile water.
40 mM test compound in appropriate solvent (water, buffer, ethanol, chloroform or DMSO).
1:10 dilution of rat liver Microsomes in 50 mM KH2PO4, pH 7.4 buffer (4 ug/ul).
In a two-dram glass vial with screw cap, add the following in order:
Buffer to give a final volume of 400 μl
25 μl diluted Microsomes (final=100 μg)−use boiled Microsomes for controls and regular Microsomes for test samples.
4 μl of 200 mM NADP (final=2 mM)
1 μl of 40 mM test compound (final=100 μM)
8 μl of 10 mM retinol (final=200 μM) […]
Aliquots of 60 μL were injected immediately and analyzed for retinoid content.
The chromatography instrumentation consisted of a Waters 600 gradient controller/pump, a Waters 996 Photodiode Array detector and a Waters 474 Scanning Fluorescence detector. […] The eluate was monitored for absorbance at 325 nm and fluorescence at 325 ex/480 em. […]

[3] = system: TGase I; assay: Transglutaminase (TGase I ELISA) assay in cultured keratinocytes with retinol; assay type: cell-based; conditions: Keratinocyte, read-out: Overall TG (IC 50)

% lnhibition Retinal Reductase [1]	Molecule	further results
6%	COc1cc(C=O)ccc1O [Vanillin]	
	Phosphatidyl Choline	activity as activator of Retinol Dehydrogenase (in words) [2]: Most preferred as most active activator of
26%	CCCCCCCCCCCCCC(=O)O [Myristic Acid]	
	Oc1cccc2cccnc12 [Hydroxyquinoline, Hydroxyquinoline (Carbostyril)]	IC50 [3]: 364 µM
37%	Phosphatidyl ethanolamine	
